{"source": "patent US20160051704A1", "about": "“MOLECULAR IMAGING PROBES FOR LUNG CANCER INTRAOPERATIVE GUIDANCE” (H. Lee Moffitt Cancer Center and Research Institute, Inc., priority 2013, published 2016)", "key": {"[1]": {"tested_on": "HCT-116/δOR (δOR+) tumor relative to HCT-116 (δOR−) tumor", "type": "in vivo, mice", "protocol": "(§1) The inventors evaluated a synthetic peptide δ-opioid receptor (δOR) antagonist Dmt-Tic (FIG. 8) conjugated to two different fluorescent dyes, Cy5 and IR800CW, as further discussed below. The pharmacokinetics (PK) of Dmt-Tic-Cy5 was evaluated in a subcutaneous xenograft model using HCT-116 cells (δOR−) and HCT-116 cells that were engineered to overexpress the δOR (δOR+). Tumor uptake of Dmt-Tic-Cy5 was also studied by intravital fluorescence microscopy using a dorsal skin-fold window chamber tumor xenograft model.\nFor PK experiments, mice were injected with 4.5 nmol/kg Dmt-Tic-Cy5 i.v. and images acquired at various time points from 0-168 h ([…]). Graphs 9B and 9C depict the mean fluorescent signal obtained from the δOR− tumors and δOR+ tumors over a time course of 0-168 h. Graph […] depicts the mean fold of enhancement (δOR+ tumor signal/δOR− tumor signal) over time. The tumor signals were quantified, averaged (n≧3 for each time point), and plotted over time. The graphs 9B and 9C show maximum probe uptake in the δOR+ tumor at 3 h. FIG. 9D depicts the maximum signal fold of enhancement (27±9 s.d.) at 18 h in δOR+ relative to δOR− tumors.\nMice then were tail vein injected with 10 μg of ligand 1 and images were acquired at different times post-injection using a VersArray 1300B cooled CCD camera, a filtered fiberoptic light source and a tunable emission filter (CRI, Inc.). After 15 min post-injection, the fluorescence intensity maps indicated systemic presence of the compound with high intensity throughout the animal (not shown). […] Histograms were generated for each ROI, and mean fluorescence intensities were determined for each time point. […]\nInitial experiments were performed using the HCT-116 parental cell line and HCT-116/δOR engineered cells in a bilateral flank subcutaneous xenograft model in mice. […] Mice were injected intravenously with the designated concentrations of Dmt-Tic-IR800 and fluorescence imaging was performed at various time points post-injection using the IVIS200 imaging system. […]"}, "[2]": {"test": "In vivo pharmacokinetic (PK) and biodistribution (BD) profiles of fluorescent conjugates"}, "[3]": {"target": "T1, delta opioid receptor (δOR) (Homo sapiens, UniProt P41143)", "T1 construct": "pcDNA-δOR15 vector containing a truncated δOR lacking the final 15 C-terminal amino acids; expressed in transfected cells", "T1 sequence (P41143 1-357 limits assumed)": "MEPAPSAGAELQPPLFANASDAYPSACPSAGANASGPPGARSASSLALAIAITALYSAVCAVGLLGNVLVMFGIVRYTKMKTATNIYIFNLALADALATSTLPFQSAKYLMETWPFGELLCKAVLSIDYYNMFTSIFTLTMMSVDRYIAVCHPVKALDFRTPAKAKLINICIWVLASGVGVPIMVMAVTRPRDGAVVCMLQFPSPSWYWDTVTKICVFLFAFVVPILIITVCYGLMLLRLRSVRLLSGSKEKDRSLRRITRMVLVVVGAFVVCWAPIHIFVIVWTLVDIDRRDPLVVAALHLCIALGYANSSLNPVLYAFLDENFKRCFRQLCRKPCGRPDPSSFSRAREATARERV", "test": "Lanthanide time-resolved fluorescence (TRF) competitive binding assay on HCT-116/δOR whole cells against Eu-DTPA-DPLCE", "settings": "HCT-116 cells engineered to express δOR; competed ligand Eu-labeled DPLCE; read-out: Ki (δOR binding affinity)", "source_text": "The inventors have previously generated an engineered cell line that stably overexpresses the δO R based on the colorectal cancer cell line HCT-116. […] For the LTRF competition binding assays with Dmt-Tic-IR800, the inventors used the engineered HCT-116/δOR cell line since it has a high number of receptors on the cell surface.\nTo determine binding affinity the inventors used a lanthanide time-resolved fluorescence (LTRF) competitive binding assay as described previously.\nFor the competitive binding assays, HCT-116/δOR cells were plated in black wall/white bottom 96-well plates (Perkin Elmer, Cat. #6005060) at a density of 20,000 cells per well and were allowed to grow for 3 days.\nOn the day of the experiment, media were aspirated from all wells and then the cells were rinsed with phosphate buffered saline (PBS) (100 μL/well). […] Ligands were diluted in binding assay buffer (Modified Eagles medium [MEM] (Gibco, Cat. #61100-087), 1 mM 1,10-phenanthroline, 200 mg/L bacitracin, 0.5 mg/L leupeptin, 26 mM NaHCO3, 25 mM HEPES, 0.2% w/v BSA) and samples were tested in octuplicate.\nCells were incubated in the presence of ligands for 1 h at 37° C. and 5% CO2. Following the incubation, cells were washed three times with wash buffer (50 mM Tris-HCl, 0.2% w/v BSA, 30 mM NaCl) (200 μL/well)."}, "[4]": {"tested_on": "DMS-53 luc+ (DOR+) orthotopic lung tumor", "test": "Orthotopic model of lung cancer, fluorescence molecular tomography", "type": "in vivo, mice", "settings": "40 nmol/kg i.v.; 0 to 48 hours", "protocol": "In the orthotopic model of lung cancer, the mice undergo a minor surgical procedure during which DMS-53 luc+ (DOR+) cells are injected directly in the left lung. The growth of the tumors is monitored using bioluminescence imaging (FIG. 33A). The PK of DORL-800 was studied in this model by injecting mice intravenously with DORL-800 (40 nmol/kg) and acquiring images at various time points from 0 to 48 hours using fluorescence molecular tomography (FIG. 33B). […] FIG. 34A depicts the structure of DORL-800. FIGS. 34B and C depict in vivo fluorescence imaging of endogenously expressing subcutaneous lung cancer xenograft tumors following administration of DORL-800. The presence of tumor was confirmed by computed tomography (CT) and histology. DORL-800 was studied for use in intraoperative guidance. FIG. 35 is an image of a SCID Hairless Outbred mouse (SHO) four weeks after DMS-53 luc+ (DOR+) cells were injected directly into the lung."}, "[5]": {"tested_on": "DMS-53 (δOR+) tumor relative to H1299 (δOR−) tumor", "test": "In vivo fluorescence imaging, bilateral subcutaneous lung cancer xenografts with endogenous δOR expression", "design": "species or system mice", "settings": "for tumor selectivity in fluorescence image: 40 nmol/kg, 24 h post-administration", "protocol": "Mice were subcutaneously injected with H1299 (δOR−) (12 million cells of 100 uL per injection) and DMS-53 (δOR+) (20 million cells at 100 uL per injection) cells in the left and right flanks, respectively. Tumors were grown for 3 weeks after subcutaneous injection.\nA dose determination assay was performed to find the optimal concentration of Dmt-Tic-IR800 for further experiments. A higher concentration of the imaging agent in these experiments was needed due to the lower receptor number. Based on previous work with fluorescent imaging agents targeting different receptors in endogenous expressing cell lines, the inventors selected concentrations of 40 nmol/kg, 80 nmol/kg, and 160 nmol/kg. (Huynh A S, Chung W J, Cho H I, Moberg V E, Celis E, Morse D L, Vagner J. Novel Toll-like Receptor 2 Ligands for Targeted Pancreatic Cancer Imaging and Immunotherapy. J Med Chem. 2012; 55(22):9751-62) Fluorescence imaging was performed using the IVIS200 imaging system at various time points following intravenous administration of Dmt-Tic-IR800. For the bilateral flank subcutaneous xenograft model using endogenously expressing cells the optimal dose was 40 nmol/kg.\nFluorescence imaging of mice bearing H1299 (δOR−) cells in the left flank and DMS-53 (δOR+) cells in the right flank was performed using the Optix MX3 imaging system and a 40 nmol/kg dose of Dmt-Tic-IR800. […] FIG. 28 is a series of in vivo fluorescence images taken at different time points of mice bearing the xenograft tumors of lung cancer cell lines with positive endogenous expression (DMS-53) and non-expression (H1299). […] FIG. 30 is a series of graphs depicting the quantified values from in vivo imaging of the lung cancer xenograft tumors using the Optix MX-3 imaging instrument by ART. FIG. 31 is a series of representative images depicting the ex vivo fluorescence imaging of excised positive tumor, negative tumor, liver, lungs, kidneys and GI tract following intravenous administration of the Dmt-Tic-IR800 agent. […]\nFor dose determination assays on the Xenogen IVIS-200, images were analyzed using Living Image Software (v3.2). […]"}, "[6]": {"settings": "literature statement; cited from earlier work"}, "[7]": {"tested_on": "HCT-116/RFP (δOR negative) and HCT-116/δOR tumors", "test": "Intravital fluorescence microscopy, dorsal skin-fold window chamber tumor xenograft", "type": "in vivo, mice", "settings": "45 nmol/kg i.v.; HCT-116/RFP (δOR negative) tumor; post tail vein injection", "protocol": "as §1\nMice containing dorsal skin-fold window chamber tumor xenografts were injected with 45 nmol/kg Dmt-Tic-Cy5 i.v. (FIG. 12) Images were acquired continuously for 15 minutes post-injection and at various time points after. […] Dmt-Tic-Cy5 is taken up and extravasates from the rat GFP vessels within seconds post tail vein injection (top). Dmt-Tic-Cy5 is cleared by 33 minutes post tail vein injection (bottom). Light gray represents the RFP signal from the tumor cells, medium gray represents the GFP signal from the rat microvessels, and dark gray is the Cy5 signal from the ligand. […] Shown are the Cy5 signal from the ligand in dark gray (left images) and overlays of the Cy5 signal and white light channels (right images) pre-injection and 25 minutes, 45 minutes, 60 minutes, 1 hour 25 minutes, and 24 hours post-injection."}, "[8]": {"target": "T2, δOR (Mus musculus, UniProt P32300)", "T2 construct": "from tissue; host or cells: mouse isolated vas deferens", "T2 sequence (P32300 whole entry)": "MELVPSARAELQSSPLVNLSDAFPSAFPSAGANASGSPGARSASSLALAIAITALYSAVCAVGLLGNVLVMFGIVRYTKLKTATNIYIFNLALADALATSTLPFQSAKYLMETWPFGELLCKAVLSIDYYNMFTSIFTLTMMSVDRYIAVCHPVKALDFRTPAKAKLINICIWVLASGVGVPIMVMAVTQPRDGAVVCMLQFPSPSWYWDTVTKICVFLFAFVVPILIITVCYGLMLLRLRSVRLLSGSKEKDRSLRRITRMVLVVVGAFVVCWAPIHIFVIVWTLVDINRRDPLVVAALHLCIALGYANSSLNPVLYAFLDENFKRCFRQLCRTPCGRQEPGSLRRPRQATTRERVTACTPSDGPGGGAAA", "test": "Mouse-isolated vas deferens (MVD) assay against δ-agonist DPDPE", "settings": "n=8, read-out: Ke (inhibitory potency)", "description": "(Kramer, T. H.; Davis, P.; Hruby, V. J.; Burks, T. F.; Porreca, F. J. Pharmacol. Exp. Ther. 1993, 266, 577-584)"}, "[9]": {"target": "δ-opioid receptor", "settings": "literature value; cited from earlier work"}}, "data": [{"compound": "Cc1cc(O)cc(C)c1C[C@H](N)C(=O)N1Cc2ccccc2C[C@H]1C(=O)N[C@@H](CCCCNC(=O)CCSC1CC(=O)N(CCNC(=O)CCCCC[N+]2=C(/C=C/C3=C(Oc4ccc(S(=O)(=O)O)cc4)C(=C/C=C4/N(CCCCS(=O)(=O)O)c5ccc(S(=O)(=O)O)cc5C4(C)C)/CCC3)C(C)(C)c3cc(S(=O)(=O)[O-])ccc32)C1=O)C(=O)O", "note": "(stereo partly drawn) [Dmt-Tic-IR800]", "values": [{"measurement": "fold enhancement of the positive tumor (HCT-116/δOR) relative to the negative tumor (HCT-116)", "setting": "[1]; 10 nmol/kg i.v., 24 hours post-injection, Optix MX3, n=4", "result": "~7", "unit": "fold"}, {"measurement": "tumor selectivity in fluorescence image", "setting": "[1]; 10 nmol/kg, 24 h post-administration", "result": "selective for the δOR+ tumor"}, {"measurement": "blood-brain barrier passage", "setting": "[2]", "result": "does not cross the blood-brain barrier"}, {"measurement": "Ki", "setting": "[3]", "result": "1430 ± 240", "unit": "pM"}, {"measurement": "accumulation in orthotopic tumor", "setting": "[4]", "result": "accumulated specifically in the tumor"}, {"measurement": "fold enhancement of the positive tumor (DMS-53) relative to the negative tumor (H1299)", "setting": "[5]; 40 nmol/kg i.v., 24 hours post-injection, Optix MX3, n=4", "result": "~4", "unit": "fold"}, {"measurement": "tumor selectivity in fluorescence image", "setting": "[5]", "result": "selective for the δOR+ tumor"}, {"measurement": "tumor selectivity in fluorescence image", "setting": "[5]; listed as DORL-800", "result": "selective for the DOR+ tumor"}]}, {"compound": "CC1(C)C(/C=C/C2=C(Oc3ccc(S(=O)(=O)O)cc3)C(=C/C=C3/N(CCCCS(=O)(=O)O)c4ccc(S(=O)(=O)[O-])cc4C3(C)C)/CCC2)=[N+](CCCCCC(=O)O)c2ccc(S(=O)(=O)O)cc21", "note": "[Licor IR800CW]", "values": [{"measurement": "toxicity", "setting": "[6]", "result": "non-toxic"}]}, {"compound": "CC[N+]1=C(C=CC=CC=C2N(CCCCCC(=O)NCCN3C(=O)CC(SCCC(=O)NCCCC[C@H](NC(=O)[C@@H]4Cc5ccccc5CN4C(=O)[C@@H](N)Cc4c(C)cc(O)cc4C)C(=O)O)C3=O)c3ccc(S(=O)(=O)O)cc3C2(C)C)C(C)(C)c2cc(S(=O)(=O)[O-])ccc21", "note": "(stereo partly drawn) [ligand 1, Dmt-Tic-Lys(Cy5)-OH]", "values": [{"measurement": "time by which probe is cleared from δOR negative tumor", "setting": "[7]", "result": "≤ 33", "unit": "min"}, {"measurement": "time of maximum probe uptake in the δOR+ tumor", "setting": "[1]; 4.5 nmol/kg i.v., time course 0-168 h", "result": 3, "unit": "h"}, {"measurement": "blood-brain barrier passage", "setting": "[2]", "result": "does not cross the blood-brain barrier"}, {"measurement": "Kb", "setting": "[8]", "result": 37, "unit": "pM"}, {"measurement": "Ki", "setting": "[3]", "result": 3000, "unit": "pM"}]}, {"compound": "Dmt-Tic-Lys(Ac)-OH", "values": [{"measurement": "Ki", "setting": "[9]", "result": 47, "unit": "pM"}]}]}
